From BindingDB's records for PubMed 31931340 (n/a, 2020)

Molecular target: PIK3CA
Assay: Inhibition of human P13Kalpha

- IC50: 15 nM
Structure (SMILES): CN(c1nc(-c2cnc(N)nc2)nc(N2CCOCC2)n1)C1CCN(C(=O)c2ccccc2)CC1
